Source: BindingDB's records for patent US9695131 (Bayer Pharma Aktiengesellschaft, 2017)
Values joined by “and” are separate entries in the source; they are usually repeats but may differ in a detail not shown here. Equal values may be shown once.

What follows are molecules tested against T1, chymase (Golden hamster, UniProt A0A1U7QTH6) (assay: Enzymatic Chymase Assay). Conditions: pH 7.5.
T1 sequence (A0A1U7QTH6 whole entry): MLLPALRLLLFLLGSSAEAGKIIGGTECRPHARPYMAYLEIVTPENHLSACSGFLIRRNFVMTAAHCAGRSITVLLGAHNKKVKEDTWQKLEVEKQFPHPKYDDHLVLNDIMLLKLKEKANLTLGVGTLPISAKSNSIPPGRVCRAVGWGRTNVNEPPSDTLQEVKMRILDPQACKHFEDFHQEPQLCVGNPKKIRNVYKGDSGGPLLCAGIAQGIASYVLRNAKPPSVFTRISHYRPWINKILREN

Row | IC50 | SMILES
1 | 37 nM | Cn1c(=O)n(C)c2cc(-n3cc(C#N)c(=O)n(C4CCc5c(Cl)cccc54)c3=O)ccc21 (racemic) [US9695131, 7]
2 | 53 nM | Cn1c(=O)sc2cc(-n3cc(C#N)c(=O)n(C4CCc5c(Cl)cccc54)c3=O)ccc21 (racemic) [US9695131, 8]
3 | 7.3 nM | Cn1c(=O)sc2cc(-n3cc(-c4nnn[nH]4)c(=O)n(C4CCc5c(Cl)cccc54)c3=O)ccc21 (racemic) [US9695131, 23]
4 | 13 nM | Cn1c(=O)oc2cc(-n3cc(-c4nnn[nH]4)c(=O)n(C4CCCc5c(Cl)cccc54)c3=O)ccc21 (racemic) [US9695131, 30]
5 | 25 nM | Cc1c(Cn2c(=O)c(C(=O)NC(C)C(=O)O)cn(-c3ccc(N4CCNC4=O)cc3)c2=O)cccc1C(F)(F)F (racemic) [US9695131, 45]
6 | 4.2 nM | Cc1c(Cn2c(=O)c(C(=O)NC(C)C(=O)O)cn(-c3ccc4c(c3)C(C)(C)C(=O)N4C)c2=O)cccc1C(F)(F)F (racemic) [US9695131, 47]
7 | 19 nM | Cc1c(Cn2c(=O)c(C(=O)NC(C)C(=O)O)cn(-c3ccc4c(c3)ncn4C)c2=O)cccc1C(F)(F)F (racemic) [US9695131, 57]
8 | 18 nM | Cn1c(=O)oc2cc(-n3cc(C#N)c(=O)n([C@@H]4CCc5c4cccc5C(F)(F)F)c3=O)ccc21 [US9695131, 2]
9 | 8.7 nM | Cn1c(=O)sc2cc(-n3cc(C#N)c(=O)n([C@@H]4CCc5c4cccc5C(F)(F)F)c3=O)ccc21 [US9695131, 3]
10 | 48 nM | Cc1c(Cn2c(=O)c(C#N)cn(-c3ccc(N4CCNC4=O)cc3)c2=O)cccc1C(F)(F)F [US9695131, 4]
11 | 29 nM | Cc1c(Cn2c(=O)c(C#N)cn(-c3ccc(N4CCOC4=O)cc3)c2=O)cccc1C(F)(F)F [US9695131, 5]
12 | 6.6 nM | Cc1c(Cn2c(=O)c(C#N)cn(-c3ccc4c(c3)n(C)c(=O)n4C)c2=O)cccc1C(F)(F)F [US9695131, 6]
13 | 35 nM | COc1ccc(-n2cc(C#N)c(=O)n(Cc3cccc(C(F)(F)F)c3C)c2=O)cc1OC [US9695131, 9]
14 | 7.6 nM | Cc1c(C#N)c(=O)n([C@@H]2CCc3c2cccc3C(F)(F)F)c(=O)n1-c1ccc2c(c1)oc(=O)n2C [US9695131, 12]
15 | 3.5 nM | Cn1c(=O)oc2cc(-n3cc(-c4nnn[nH]4)c(=O)n([C@@H]4CCc5c4cccc5C(F)(F)F)c3=O)ccc21 [US9695131, 14]
16 | 2.8 nM | Cn1c(=O)sc2cc(-n3cc(-c4nnn[nH]4)c(=O)n([C@@H]4CCc5c4cccc5C(F)(F)F)c3=O)ccc21 [US9695131, 15]
17 | 4.6 nM and 2.8 nM | Cn1c(=O)n(C)c2cc(-n3cc(-c4nnn[nH]4)c(=O)n(C4CCc5c(Cl)cccc54)c3=O)ccc21 (centres undefined) [US9695131, 18]
18 | 5.8 nM | Cc1c(Cn2c(=O)c(-c3nnn[nH]3)cn(-c3ccc4c(c3)n(C)c(=O)n4C)c2=O)cccc1C(F)(F)F [US9695131, 19]
19 | 22 nM | COc1ccc(-n2cc(-c3nnn[nH]3)c(=O)n(Cc3cccc(C(F)(F)F)c3C)c2=O)cc1OC [US9695131, 20]
20 | 32 nM | Cc1c(Cn2c(=O)c(-c3nnn[nH]3)cn(-c3ccc(N4CCNC4=O)cc3)c2=O)cccc1C(F)(F)F [US9695131, 21]
21 | 30 nM | Cc1c(Cn2c(=O)c(-c3nnn[nH]3)cn(-c3ccc(N4CCOC4=O)cc3)c2=O)cccc1C(F)(F)F [US9695131, 25]
22 | 44 nM | COc1ccc(-n2cc(-c3nnn[nH]3)c(=O)n(Cc3cccc(C(F)(F)F)c3Cl)c2=O)cc1 [US9695131, 26]

Row | IC50 | SMILES
23 | 130 nM | COc1ccc(-n2cc(-c3nnn[nH]3)c(=O)n(Cc3cccc(Cl)c3Cl)c2=O)cc1 [US9695131, 27]
24 | 4.9 nM | Cc1c(Cn2c(=O)c(-c3noc(=O)[nH]3)cn(-c3ccc4c(c3)n(C)c(=O)n4C)c2=O)cccc1C(F)(F)F [US9695131, 33]
25 | 55 nM | Cc1c(Cn2c(=O)c(-c3noc(=O)[nH]3)cn(-c3ccc(N4CCNC4=O)cc3)c2=O)cccc1C(F)(F)F [US9695131, 34]
26 | 36 nM | Cc1c(Cn2c(=O)c(-c3noc(=O)[nH]3)cn(-c3ccc(N4CCOC4=O)cc3)c2=O)cccc1C(F)(F)F [US9695131, 35]
27 | 19 nM | COc1ccc(-n2cc(-c3noc(=O)[nH]3)c(=O)n(Cc3cccc(C(F)(F)F)c3C)c2=O)cc1OC [US9695131, 36]
28 | 76 nM | COc1ccc(-n2cc(-c3noc(=O)[nH]3)c(=O)n(Cc3cccc(C(F)(F)F)c3C)c2=O)cc1 [US9695131, 37]
29 | 8.1 nM | Cn1c(=O)oc2cc(-n3cc(-c4noc(=O)[nH]4)c(=O)n([C@@H]4CCc5c4cccc5C(F)(F)F)c3=O)ccc21 [US9695131, 38]
30 | 16 nM | Cc1c(Cn2c(=O)c(-c3nsc(=O)[nH]3)cn(-c3ccc(N4CCOC4=O)cc3)c2=O)cccc1C(F)(F)F [US9695131, 39]
31 | 12 nM | COc1ccc(-n2cc(-c3nsc(=O)[nH]3)c(=O)n(Cc3cccc(C(F)(F)F)c3C)c2=O)cc1OC [US9695131, 40]
32 | 12 nM | Cn1c(=O)oc2cc(-n3cc(C(N)=O)c(=O)n([C@@H]4CCc5c4cccc5C(F)(F)F)c3=O)ccc21 [US9695131, 41]
33 | 9.8 nM | Cn1c(=O)sc2cc(-n3cc(C(N)=O)c(=O)n([C@@H]4CCc5c4cccc5C(F)(F)F)c3=O)ccc21 [US9695131, 42]
34 | 54 nM | CCOC(=O)C(C)(C)NC(=O)c1cn(-c2ccc3c(c2)n(C)c(=O)n3C)c(=O)n(Cc2cccc(C(F)(F)F)c2C)c1=O [US9695131, 48]
35 | 3.6 nM | Cc1c(Cn2c(=O)c(C(=O)NC(C)(C)C(=O)O)cn(-c3ccc4c(c3)n(C)c(=O)n4C)c2=O)cccc1C(F)(F)F [US9695131, 49]
36 | 39 nM | CCOC(=O)C1(NC(=O)c2cn(-c3ccc4c(c3)n(C)c(=O)n4C)c(=O)n(Cc3cccc(C(F)(F)F)c3C)c2=O)CCC1 [US9695131, 50]
37 | 3 nM | Cc1c(Cn2c(=O)c(C(=O)NC3(C(=O)O)CCC3)cn(-c3ccc4c(c3)n(C)c(=O)n4C)c2=O)cccc1C(F)(F)F [US9695131, 51]
38 | 94 nM | Cc1c(Cn2c(=O)c(C(N)=O)cn(-c3ccc(N4CCNC4=O)cc3)c2=O)cccc1C(F)(F)F [US9695131, 52]
39 | 180 nM | COC(=O)CCNC(=O)c1cn(-c2ccc(N3CCNC3=O)cc2)c(=O)n(Cc2cccc(C(F)(F)F)c2C)c1=O [US9695131, 53]
40 | 238 nM | Cc1c(Cn2c(=O)c(C(=O)NCC#N)cn(-c3ccc(N4CCNC4=O)cc3)c2=O)cccc1C(F)(F)F [US9695131, 55]
41 | 914 nM | COc1ccc(-n2cc(C(=O)NCCC(=O)O)c(=O)n(Cc3cccc(Cl)c3Cl)c2=O)cc1 [US9695131, 59]
42 | 1590 nM | COC(=O)C(COC(C)(C)C)NC(=O)c1cn(-c2ccc(N3CCNC3=O)cc2)c(=O)n(Cc2cccc(C(F)(F)F)c2C)c1=O (centres undefined) [US9695131, 60]
43 | 17 nM | Cc1c(Cn2c(=O)c(C(=O)NC(CO)C(=O)O)cn(-c3ccc(N4CCNC4=O)cc3)c2=O)cccc1C(F)(F)F (centres undefined) [US9695131, 61]
44 | 2.6 nM | Cn1c(=O)oc2cc(-n3cc(C(=O)NC#N)c(=O)n([C@@H]4CCc5c4cccc5C(F)(F)F)c3=O)ccc21 [US9695131, 63]
